Measured values as given in PubChem BioAssay (NCI).
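Exposure lasted 48 hours, with cells grown in 96-well plates and compounds tested at five concentrations. The concentration for 50% growth inhibition is given as GI50. TGI is the concentration that stops growth completely.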

Experiments:
Assay in all cases: NCI tumour cell line growth inhibition, 48 h
MOLT-4 leukemia = tested on: MOLT-4 leukemia
M14 melanoma = tested on: M14 melanoma
K-562 leukemia = tested on: K-562 leukemia
CAKI-1 renal = tested on: CAKI-1 renal
COLO 205 colon = tested on: COLO 205 colon
IGROV1 ovarian = tested on: IGROV1 ovarian
SK-MEL-28 melanoma = tested on: SK-MEL-28 melanoma
SF-268 CNS = tested on: SF-268 CNS
BT-549 breast = tested on: BT-549 breast
HOP-92 NSCLC = tested on: HOP-92 NSCLC
SF-539 CNS = tested on: SF-539 CNS
ACHN renal = tested on: ACHN renal
NCI-H23 lung = tested on: NCI-H23 lung
CCRF-CEM leukemia = tested on: CCRF-CEM leukemia
SNB-75 CNS = tested on: SNB-75 CNS
NCI-H226 lung = tested on: NCI-H226 lung
OVCAR-3 ovarian = tested on: OVCAR-3 ovarian
MDA-N = tested on: MDA-N
SF-295 CNS = tested on: SF-295 CNS
SK-MEL-2 melanoma = tested on: SK-MEL-2 melanoma
NCI-H460 lung = tested on: NCI-H460 lung
UACC-257 melanoma = tested on: UACC-257 melanoma
A549 NSCLC = tested on: A549 NSCLC
HT29 colon = tested on: HT29 colon
SK-OV-3 ovarian = tested on: SK-OV-3 ovarian
A498 renal = tested on: A498 renal
RXF 393 renal = tested on: RXF 393 renal
UACC-62 melanoma = tested on: UACC-62 melanoma
HCT-116 colon = tested on: HCT-116 colon
OVCAR-5 ovarian = tested on: OVCAR-5 ovarian
786-0 renal = tested on: 786-0 renal
DU-145 prostate = tested on: DU-145 prostate
MDA-MB-231 breast = tested on: MDA-MB-231 breast
MALME-3M melanoma = tested on: MALME-3M melanoma
SN12C renal = tested on: SN12C renal
U251 CNS = tested on: U251 CNS
UO-31 renal = tested on: UO-31 renal
SK-MEL-5 melanoma = tested on: SK-MEL-5 melanoma
MDA-MB-435 = tested on: MDA-MB-435
NCI/ADR-RES ovarian = tested on: NCI/ADR-RES ovarian
PC-3 prostate = tested on: PC-3 prostate
TK-10 renal = tested on: TK-10 renal
SW-620 colon = tested on: SW-620 colon
EKVX NSCLC = tested on: EKVX NSCLC
HS 578T breast = tested on: HS 578T breast
LOX IMVI melanoma = tested on: LOX IMVI melanoma
SNB-19 CNS = tested on: SNB-19 CNS
MCF7 breast = tested on: MCF7 breast
T-47D breast = tested on: T-47D breast
HOP-62 NSCLC = tested on: HOP-62 NSCLC
RPMI-8226 leukemia = tested on: RPMI-8226 leukemia
OVCAR-4 ovarian = tested on: OVCAR-4 ovarian
HCC-2998 colon = tested on: HCC-2998 colon
OVCAR-8 ovarian = tested on: OVCAR-8 ovarian
KM12 colon = tested on: KM12 colon
HCT-15 colon = tested on: HCT-15 colon
HL-60(TB) leukemia = tested on: HL-60(TB) leukemia
NCI-H522 lung = tested on: NCI-H522 lung
SR leukemia = tested on: SR leukemia

## N#CC12COC3(CCCCC3C1(C#N)C#N)OC2=N (stereo not given)
MOLT-4 leukemia
  TGI: 79.7 µM
M14 melanoma
  TGI: 22.4 µM
K-562 leukemia
  TGI: > 100 µM
CAKI-1 renal
  TGI: 14.2 µM
COLO 205 colon
  TGI: 19.2 µM
IGROV1 ovarian
  TGI: 27.7 µM
SK-MEL-28 melanoma
  TGI: 46.8 µM
SF-268 CNS
  TGI: 25.3 µM
BT-549 breast
  TGI: 30.5 µM
HOP-92 NSCLC
  TGI: 18.5 µM
SF-539 CNS
  TGI: 27.5 µM
ACHN renal
  TGI: 30.1 µM
NCI-H23 lung
  TGI: 37.2 µM
CCRF-CEM leukemia
  TGI: 22.3 µM
SNB-75 CNS
  TGI: 35.2 µM
NCI-H226 lung
  TGI: 71.2 µM
OVCAR-3 ovarian
  TGI: 23.1 µM
MDA-N
  TGI: 25.5 µM
SF-295 CNS
  TGI: 43.1 µM
SK-MEL-2 melanoma
  TGI: 25.3 µM
NCI-H460 lung
  TGI: 29.4 µM
UACC-257 melanoma
  TGI: 34.1 µM
A549 NSCLC
  TGI: 66.8 µM
HT29 colon
  TGI: 26.1 µM
SK-OV-3 ovarian
  TGI: > 100 µM
A498 renal
  TGI: 39.3 µM
RXF 393 renal
  TGI: 25.8 µM
UACC-62 melanoma
  TGI: 33.9 µM
HCT-116 colon
  TGI: 25.1 µM
OVCAR-5 ovarian
  TGI: 30.4 µM
786-0 renal
  TGI: > 100 µM
DU-145 prostate
  TGI: 28.7 µM
MDA-MB-231 breast
  TGI: 33.3 µM
MALME-3M melanoma
  TGI: 35.6 µM
SN12C renal
  TGI: 24.8 µM
U251 CNS
  TGI: 45.5 µM
UO-31 renal
  TGI: 30.6 µM
SK-MEL-5 melanoma
  TGI: 23.5 µM
MDA-MB-435
  TGI: 64.7 µM
NCI/ADR-RES ovarian
  TGI: > 100 µM
PC-3 prostate
  TGI: 27.3 µM
TK-10 renal
  TGI: 31.6 µM
SW-620 colon
  TGI: > 100 µM
EKVX NSCLC
  TGI: 48.8 µM
HS 578T breast
  TGI: 44.7 µM
LOX IMVI melanoma
  TGI: 30.3 µM
SNB-19 CNS
  TGI: 36 µM
MCF7 breast
  TGI: 29.5 µM
T-47D breast
  TGI: 26.7 µM

## COc1cc2cc(c1Cl)N(C)C(=O)CC(OC(=O)C(C)C)C1(C)OC1C(C)C1CC(O)(NC(=O)O1)C(OC)/C=C/C=C(C)C2 (stereo not given)
CAKI-1 renal
  TGI: 19.1 µM
SK-MEL-28 melanoma
  GI50: 17.6 µM
SF-268 CNS
  TGI: 15.4 µM
BT-549 breast
  TGI: 82.9 µM
ACHN renal
  GI50: 0.0126 µM
NCI-H23 lung
  TGI: 48.5 µM
HOP-62 NSCLC
  TGI: 62 µM
RPMI-8226 leukemia
  TGI: 12.9 µM
MDA-N
  TGI: 1.41 µM
UACC-257 melanoma
  TGI: 23.8 µM
A549 NSCLC
  TGI: 33.1 µM
SK-OV-3 ovarian
  TGI: 53.4 µM
A498 renal
  TGI: 36.7 µM
HCT-116 colon
  TGI: 13.8 µM
OVCAR-5 ovarian
  TGI: 38.6 µM
786-0 renal
  TGI: 30.6 µM
OVCAR-4 ovarian
  TGI: 40.8 µM
MALME-3M melanoma
  TGI: 25.1 µM
SN12C renal
  TGI: 46.7 µM
UO-31 renal
  TGI: 18.9 µM
TK-10 renal
  TGI: 36.4 µM
EKVX NSCLC
  TGI: 16.6 µM
T-47D breast
  GI50: 29.1 µM

## COc1cc(/C=C2\C(=O)N(c3cccc(Cl)c3)C(c3ccccc3)S2(=O)=O)cc(OC)c1OC (stereo not given)
MOLT-4 leukemia
  TGI: 98.8 µM
HCC-2998 colon
  TGI: > 100 µM
M14 melanoma
  TGI: > 100 µM
K-562 leukemia
  TGI: > 100 µM
CAKI-1 renal
  TGI: > 100 µM
OVCAR-8 ovarian
  TGI: > 100 µM
COLO 205 colon
  TGI: > 100 µM
SK-MEL-28 melanoma
  TGI: > 100 µM
SF-268 CNS
  TGI: > 100 µM
BT-549 breast
  TGI: > 100 µM
HOP-92 NSCLC
  TGI: > 100 µM
SF-539 CNS
  TGI: > 100 µM
ACHN renal
  TGI: > 100 µM
NCI-H23 lung
  TGI: > 100 µM
CCRF-CEM leukemia
  TGI: 71.8 µM
HOP-62 NSCLC
  TGI: > 100 µM
KM12 colon
  TGI: > 100 µM
RPMI-8226 leukemia
  TGI: 80.1 µM
NCI-H226 lung
  TGI: > 100 µM
OVCAR-3 ovarian
  TGI: > 100 µM
HCT-15 colon
  TGI: > 100 µM
HL-60(TB) leukemia
  TGI: > 100 µM
MDA-N
  TGI: 46.6 µM
SF-295 CNS
  TGI: > 100 µM
SK-MEL-2 melanoma
  TGI: > 100 µM
NCI-H460 lung
  TGI: > 100 µM
UACC-257 melanoma
  TGI: > 100 µM
A549 NSCLC
  TGI: > 100 µM
HT29 colon
  TGI: > 100 µM
SK-OV-3 ovarian
  TGI: > 100 µM
A498 renal
  TGI: > 100 µM
NCI-H522 lung
  TGI: 55.8 µM
RXF 393 renal
  TGI: > 100 µM
UACC-62 melanoma
  TGI: > 100 µM
HCT-116 colon
  TGI: > 100 µM
OVCAR-5 ovarian
  TGI: > 100 µM
786-0 renal
  TGI: > 100 µM
DU-145 prostate
  TGI: > 100 µM
MDA-MB-231 breast
  TGI: > 100 µM
OVCAR-4 ovarian
  TGI: > 100 µM
MALME-3M melanoma
  TGI: > 100 µM
SN12C renal
  TGI: > 100 µM
U251 CNS
  TGI: > 100 µM
UO-31 renal
  TGI: > 100 µM
SK-MEL-5 melanoma
  TGI: > 100 µM
MDA-MB-435
  TGI: > 100 µM
NCI/ADR-RES ovarian
  TGI: > 100 µM
TK-10 renal
  TGI: > 100 µM
SW-620 colon
  TGI: > 100 µM
EKVX NSCLC
  TGI: > 100 µM
HS 578T breast
  TGI: > 100 µM
LOX IMVI melanoma
  TGI: 97.2 µM
SNB-19 CNS
  TGI: > 100 µM
MCF7 breast
  TGI: > 100 µM
T-47D breast
  TGI: > 100 µM

## Cc1ccnc(NS(=O)(=O)c2ccc(NC(=O)c3ccc4nc5ccccc5c(Nc5ccc(S(=O)(=O)Nc6nccc(C)n6)cc5)c4c3)cc2)n1
MOLT-4 leukemia
  TGI: > 100 µM
HCC-2998 colon
  TGI: > 100 µM
M14 melanoma
  TGI: > 100 µM
K-562 leukemia
  TGI: > 100 µM
CAKI-1 renal
  TGI: > 100 µM
OVCAR-8 ovarian
  TGI: > 100 µM
COLO 205 colon
  TGI: > 100 µM
IGROV1 ovarian
  TGI: > 100 µM
SK-MEL-28 melanoma
  TGI: > 100 µM
SF-268 CNS
  TGI: > 100 µM
BT-549 breast
  TGI: 32.6 µM
HOP-92 NSCLC
  TGI: 55.4 µM
SF-539 CNS
  TGI: > 100 µM
ACHN renal
  TGI: > 100 µM
NCI-H23 lung
  TGI: > 100 µM
CCRF-CEM leukemia
  TGI: > 100 µM
SNB-75 CNS
  TGI: > 100 µM
HOP-62 NSCLC
  TGI: > 100 µM
KM12 colon
  TGI: > 100 µM
RPMI-8226 leukemia
  TGI: > 100 µM
NCI-H226 lung
  TGI: > 100 µM
OVCAR-3 ovarian
  TGI: 95.6 µM
HCT-15 colon
  TGI: > 100 µM
HL-60(TB) leukemia
  TGI: > 100 µM
MDA-N
  TGI: > 100 µM
SF-295 CNS
  TGI: > 100 µM
SK-MEL-2 melanoma
  TGI: 39.5 µM
NCI-H460 lung
  TGI: > 100 µM
UACC-257 melanoma
  TGI: > 100 µM
A549 NSCLC
  TGI: > 100 µM
HT29 colon
  TGI: > 100 µM
SK-OV-3 ovarian
  TGI: > 100 µM
NCI-H522 lung
  TGI: 87.4 µM
RXF 393 renal
  TGI: 51.2 µM
UACC-62 melanoma
  TGI: > 100 µM
HCT-116 colon
  TGI: > 100 µM
OVCAR-5 ovarian
  TGI: > 100 µM
786-0 renal
  TGI: > 100 µM
DU-145 prostate
  TGI: > 100 µM
MDA-MB-231 breast
  TGI: > 100 µM
OVCAR-4 ovarian
  TGI: > 100 µM
MALME-3M melanoma
  TGI: > 100 µM
SN12C renal
  TGI: > 100 µM
U251 CNS
  TGI: 41.7 µM
UO-31 renal
  TGI: > 100 µM
SK-MEL-5 melanoma
  TGI: > 100 µM
MDA-MB-435
  TGI: > 100 µM
NCI/ADR-RES ovarian
  TGI: > 100 µM
PC-3 prostate
  TGI: > 100 µM
TK-10 renal
  TGI: > 100 µM
SW-620 colon
  TGI: > 100 µM
EKVX NSCLC
  TGI: > 100 µM
SR leukemia
  TGI: 55.6 µM
HS 578T breast
  TGI: > 100 µM
LOX IMVI melanoma
  TGI: > 100 µM
SNB-19 CNS
  TGI: > 100 µM
MCF7 breast
  TGI: 75.1 µM
T-47D breast
  TGI: > 100 µM
